Measured values taken from patent US9339486B2, “Heterocyclic modulators of cannabinoid receptors” (THE CLEVELAND CLINIC FOUNDATION, priority 2008, dated 2016).

Legend:
[1] = target: hCB2 (human CB2) receptors (Homo sapiens (Human), UniProt P34972); experiment: GTPγ[35S] functional assay, CHO membrane extracts hCB2; type: biochemical
Description: Functional activity was evaluated using GTPγ[^35S] assay in CHO membrane extracts expressing recombinant hCB1 (human CB1) receptors or hCB2 (human CB2) receptors. The assay relies on the binding of GTPγ[^35S], a radiolabeled nonhydrolyzable GTP analogue, to the G protein upon binding of an agonist of the G-protein-coupled receptor. In this system, agonists stimulate GTPγ[^35S] binding whereas neutral antagonist have no effect and inverse agonists decrease GTPγ[^35S] basal binding.
The compound of Example 3 was solubilized in 100% DMSO at a concentration of 10 mM within 4 hours of the first testing session (master solution). A predilution for the dose response curve was performed in 100% DMSO and then diluted 100 fold in assay buffer at a concentration 2 fold higher than the concentration to be tested. […] For GTPγS membranes were mixed with GDP diluted in assay buffer to give 30 μM solution (volume:volume) and incubated for at least […] on ice. In parallel, GTPγ[^35S] (GE Healthcare, Catalogue number SJ1308) were mixed with the beads (PVT-WGA (GE Healthcare, RPNQ001)), diluted in assay buffer at 50 mg/ml (0.5 mg/10 μl) (volume:volume) just before starting the reaction. […] Then the plates were centrifuged for 10 min at 2000 rpm and counted for 1 min/well with a PerkinElmer TopCount reader. […]

[2] = tested on: naïve rats; experiment: Open field chamber testing; type: in vivo, rat; settings: i.p.: Example 3 15 mg/kg, WIN 55,212-2 7 mg/kg, haloperidol 1 mg/kg
Description: The automated open-field chamber (Med Associates ENV-515 Test Environment, St. Albans, Vt.) 43.2×43.2×30.5 cm (L×W×H) equipped with three pairs of 16 infrared arrays that continually monitored the animal's movement was used to determine potential CNS effects of the compound of Example 3, WIN55212-2, and haloperidol in naïve rats. Rats were individually tested 15 min after i.p. drug administration. The infrared beams were set 2.5 cm apart horizontally and at a height of 3 cm above the floor, with the rearing array set at 12 cm from the floor. The area in the box was divided into 4 equal quadrants (zones), with data collected within each quadrant and across quadrants (zone entries). An ambulatory movement was defined as a motion of at least 5 cm and was coded by quadrant. Vertical movements were counted when the rat moved vertically a minimum of 12 cm from the floor. Zone entries were defined as an entry into a zone (from another zone). Entry into a zone was counted when the rat was far enough into the zone to break 2 sets of photoelectric beams for the new zone beams during an ambulatory movement.

[3] = tested on: paclitaxel-induced neuropathy; experiment: Prevention of neuropathy induced by paclitaxel; type: in vivo, rat
Description: A mixture of saline and CREMOPHOR® ELP 10% was used as vehicle for paclitaxel. It was injected at a concentration of 1.0 mg/kg intraperitoneally to the chemotherapy-treated group of rats on 4 consecutive days for a final cumulative dose of 4 mg/kg to 18 rats.
Paw withdrawal thresholds were determined daily in both hind paws of each animal using calibrated von Frey monofilaments according to an up-down procedure. A series of von Frey filaments with exponentially incremental degrees of stiffness (0.4, 0.7, 1.2, 2.0, 3.6, 5.5, 8.5, and 15.1 g) was used to measure the 50% threshold for both hindpaw withdrawal in awake, unrestrained rats. Chaplan, S. R., Quantitative assessment of tactile allodynia in the rat paw, Journal of Neuroscience Methods, 1994, 53:55-63. Brisk paw withdrawal from the pressure of a filament gently bent against the plantar surface of the paw was defined as a positive response, and absence of withdrawal within 6 sec was considered a negative response. The series of filaments touched the hindpaw in sequential ascending or descending order of stiffness until the threshold of response was crossed (allowing about 10 sec between each increment). Each time the threshold was crossed, the direction of stimulus presentation was reversed and the procedure resumed. Four responses were collected after the first threshold detection, and the 50% withdrawal thresholds was interpolated. In cases in which the response thresholds fall outside the range of detection, 15.1 and 0.25 g were assigned for continuous negative or positive responses, respectively, to the limits of stimulation. FIG. 17 and FIG. 18 show results from these experiments and that peripheral neuropathy started to develop within a few days. FIG. 18 reflects that a plateau was reached by the 10th day.
Group 1 of rats received paclitaxel for four days, as described immediately above in subpart (A) titled “Paclitaxel-induced Neuropathy.” In group 2, a dose of 15 mg/kg of the compound of Example 3, injected intraperitoneally was administered 30 minutes prior to the administration of paclitaxel. In group 3, vehicle of the compound of Example 3 was administered 30 min prior to the administration of paclitaxel. Paw withdrawal thresholds were determined daily in both hind paws of each animal using calibrated von Frey monofilaments according to an up-down procedure as described immediately above in subpart (A) titled “Paclitaxel-induced Neuropathy.” The results are shown in FIG. 17.
FIGS. 19A and 19B show results from an experiment in which three groups of rats were administered 0.25 mL of the compound of Example 3 or the vehicle, a mixture of NMP, propylene glycol, chromophore ELP (25%, 25%, 10%) in sterile water 30 min prior to the administration of paclitaxel. Two of the three experimental groups continued to receive either the vehicle or the compound of Example 3 daily for 11 more days.

[4] = target: rat CB1 (rCB1) (Rattus norvegicus (Rat), UniProt P20272); experiment: cAMP activation assay rCB1; type: cell-based
Description: The test was performed in 96 well plates. For testing, 12 μl of cells (2×10^3 cells/well) were mixed with 12 μl of agonist at increasing concentrations. […] The plates were then incubated for 30 min at room temperature. After addition of the lysis buffer, cAMP concentrations were estimated, according to the manufacturer specification, with the HTRF kit from Cis-Bio International (Catalogue number 62AM2PEB).

SMILES: CC1(Cc2ccccc2)COc2cc(C(=O)N3CCCCC3)ccc21 (stereo not drawn) [Example 3, 3-benzyl-3-methyl-2,3-dihydrobenzofuran-6-carboxylic acid-piperidine amide]
- Emax [1]: 88%
- EC50 ([1]; read-out: Agonist EC50 (mean ± s.e. mean) GTPγ[35S] functional assays hCB2): 128 nM
- exploratory behavior in the open field (distance traveled, ambulatory time, rearing, zone entries) [2]: absence of psychoactive cannabinoid effect
- development of paclitaxel-evoked mechano-allodynia ([3]; 15 mg/kg for 4 days only): did not prevent but significantly prevented the severity
- prevention of paclitaxel-induced neuropathy, share of rats ([3]; administered for 14 days (4 days concomitant with paclitaxel and further 10 days)): 100%
- prevention of paclitaxel-induced neuropathy ([3]; administered for four days only): short-lived prevention
- development of paclitaxel-evoked mechano-allodynia ([3]; continued 15 mg/kg IP daily): completely prevented
- activity at rCB1 receptors [4]: did not exhibit any activity
- EC50 ([4]; read-out: Agonist EC50 (mean ± s.e. mean) cAMP activation assays rCB1): > 10000 nM
